Measured values from US4565811A, “Sodium salt of ursodeoxycholic sulphate” (Istituto Biologico Chemioterapico "ABC" S.p.A., priority 1983, dated 1986).
Where a name gives a salt, the structure may show the parent alone.

Legend:
[1] = Toxicity of sodium ursosulphate compared with ursodeoxycholic acid; conditions: in vivo
[2] = tested on: rat; assay: Acute toxicity of US in the rat by intravenous route; type: in vivo; parameters: key to Symptomatology: N: none; D: depression; conditions: for Symptomatology: 8 days; for Died animals: groups of 10, 8 days
Description: (§1) Acute toxicity of sodium ursosulphate was tested in rats by administering the different doses of the compound directly in a physiologic solution at 0.9% in a volume either of 10 ml/kg by oral route through a probe directly to the stomach or of 5 ml/kg intraperitoneously or intravenously.
(§2) The dosages administered to groups of 10 animals each are reported in the following Tables 3 to 5 together with the symptomatology observed for a period of 8 days.

[3] = as above; type: in vivo; parameters: key to Symptomatology: N: none; D: depression; conditions: rat, in vivo
Description: as §1, §2

[4] = Solubility in water / acidity; type: physicochemical; conditions: water
[5] = tested on: rat; assay: Acute toxicity of US in the rat by intraperitoneal administration; type: in vivo; parameters: key to Symptomatology: N: none; D: depression; conditions: for Symptomatology: 8 days; for Died animals: groups of 10, 8 days
Description: as §1, §2

[6] = as above; type: in vivo; parameters: key to Symptomatology: N: none; D: depression; conditions: rat, in vivo, ip
Description: as §1, §2

[7] = tested on: hyperdislipidemia caused by Triton WR-1339 in the rat; assay: Action on the hyperdislipidemia caused by Triton WR-1339 in the rat; type: in vivo, Albinus rats (Witar); conditions: for Alfa-Lipoproteins: Increase towards Group 2 / Beta-Lipoproteins: Inhibition towards Group 2 / Beta/alfa ratio: Inhibition towards Group 2 / Total cholesterol: Inhibition in comparison with Group 2 / Total lipids: Inhibition in comparison with Group 2 / Triglycerids: Inhibition in comparison with Group 2: vs Group 2 (Triton control); for Activity compared with UA: oral
Description: Action on the hyperdislipidemia caused by Triton WR-1339 in the rat
Albinus rats (Witar) of 300-320 g each, having been fed only with water "ad libitum" for 12 hours, were treated with US and UA, by oral route, 4 hours before and 15 hours after the administration intraperitenously of Triton WR-1339 at the dosage of 300 mg/kg in 10 ml/kg of physiologic solution at 0.9%.
US and UA dosages were 25, 50 and 100 mg/kg respectively and the rats were divided in the following groups of 10 animals each.
Group 1: Controls treated with 10 ml/kg of physiological solution at 0.9% orally.
Group 2: Controls treated with 300 mg/kg of Triton WR-1339 i.p. and 10 ml/kg of carboxy methyl cellulose (CMC) at 0.5%.
Group 3, 4 and 5: UA at 25, 50 and 100 mg/kg respectively suspended in 10 ml/kg of CMC at 0.5%.
Groups 6, 7 and 8: US at 25, 50 and 100 mg/kg respectively dissolved in 10 ml/kg of physiologic solution.
The following Tables 1 and 2 list the results of blood-tests from addominal aorta of rats sacrificed 5 hours after the last treatment: […]

[8] = tested on: rat; assay: Acute toxicity of US in the rat by oral administration; type: in vivo; parameters: key to Symptomatology: N: none; D: depression; conditions: for Symptomatology: 8 days; for Died animals: groups of 10, 8 days
Description: as §1, §2

[9] = as above; type: in vivo; parameters: key to Symptomatology: N: none; D: depression; conditions: rat, in vivo
Description: as §1, §2

[10] = rat, up to the administered doses
[11] = 25 mg/kg os, Triton WR-1339 rat
[12] = 50 mg/kg os, Triton WR-1339 rat
[13] = 100 mg/kg os, Triton WR-1339 rat

## CC(CCC(=O)O)C1CCC2C3C(OS(=O)(=O)O)CC4CC(OS(=O)(=O)O)CCC4(C)C3CCC12C (stereo not drawn) [US, sodium salt of ursodeoxycholic O-sulphate]
[1]
  Toxicity compared with ursodeoxycholic acid: does not show any significative differences and maintains the values already known for ursodeoxycholic acid
[2]; 400 mg/kg
  Symptomatology: N
  Died animals: 0 animals
[2]; 500 mg/kg
  Symptomatology: N
  Died animals: 0 animals
[2]; 600 mg/kg
  Symptomatology: D
  Died animals: 0 animals
[2]; 650 mg/kg
  Symptomatology: D + C
  Died animals: 1 animals
[2]; 700 mg/kg
  Symptomatology: D + C
  Died animals: 1 animals
[2]; 750 mg/kg
  Symptomatology: D + C
  Died animals: 2 animals
[2]; [10]
  LD50: the LD50 was not reached up to the administered doses
[3]; 400 mg/kg
  mortality at 192 h: 0%
[3]; 500 mg/kg
  mortality at 192 h: 0%
[3]; 600 mg/kg
  mortality at 192 h: 0%
[3]; 650 mg/kg
  mortality at 192 h: 10%
[3]; 700 mg/kg
  mortality at 192 h: 10%
[3]; 750 mg/kg
  mortality at 192 h: 20%
[4]; listed as Sodium ursosulphate
  Solubility in water: very soluble in water
[4]; listed as sodium ursosulphate
  Solubility in water: very soluble in water
[5]; 500 mg/kg
  Symptomatology: N
  Died animals: 0 animals
[5]; 600 mg/kg
  Symptomatology: N
  Died animals: 0 animals
[5]; 700 mg/kg
  Symptomatology: D
  Died animals: 0 animals
[5]; 800 mg/kg
  Symptomatology: D
  Died animals: 0 animals
[5]; 900 mg/kg
  Symptomatology: D
  Died animals: 2 animals
[5]; [10]
  LD50: the LD50 was not reached up to the administered doses
[6]; 500 mg/kg
  mortality at 192 h: 0%
[6]; 600 mg/kg
  mortality at 192 h: 0%
[6]; 700 mg/kg
  mortality at 192 h: 0%
[6]; 800 mg/kg
  mortality at 192 h: 0%
[6]; 900 mg/kg
  mortality at 192 h: 10%
[7]; [11]
  Alfa-Lipoproteins Average ± SD: 29,2 ± 6,7 mg/100 ml serum
  Beta-Lipoproteins Average ± SD: 191,5 ± 42,1 mg/100 ml serum
  Beta/alfa ratio Average ± SD: 7,23 ± 3,6 mg/100 ml serum
  Total cholesterol Average ± SD: 220,8 ± 36,4 mg/100 ml serum
  Total lipids Average ± SD: 2697,1 ± 706,8 mg/100 ml serum
  Triglycerids Average ± SD: 1040,6 ± 91,08 mg/100 ml serum
[7]; 25 mg/kg os
  Alfa-Lipoproteins: Increase towards Group 2: +30,4%
  Beta-Lipoproteins: Inhibition towards Group 2: -29,9%
  Beta/alfa ratio: Inhibition towards Group 2: -42,0%
  Total cholesterol: Inhibition in comparison with Group 2: -25,4%
  Total lipids: Inhibition in comparison with Group 2: -29,4%
  Triglycerids: Inhibition in comparison with Group 2: -20,7%
[7]; [12]
  Alfa-Lipoproteins Average ± SD: 39,32 ± 5,5 mg/100 ml serum
  Beta-Lipoproteins Average ± SD: 123,8 ± 27,7 mg/100 ml serum
  Beta/alfa ratio Average ± SD: 3,15 ± 1,1 mg/100 ml serum
  Total cholesterol Average ± SD: 163,2 ± 25,7 mg/100 ml serum
  Total lipids Average ± SD: 1972,6 ± 550,0 mg/100 ml serum
  Triglycerids Average ± SD: 654,3 ± 206,5 mg/100 ml serum
[7]; 50 mg/kg os
  Alfa-Lipoproteins: Increase towards Group 2: +75,4%
  Beta-Lipoproteins: Inhibition towards Group 2: -54,7%
  Beta/alfa ratio: Inhibition towards Group 2: -74,7%
  Total cholesterol: Inhibition in comparison with Group 2: -44,3%
  Total lipids: Inhibition in comparison with Group 2: -48,4%
  Triglycerids: Inhibition in comparison with Group 2: -50,1%
[7]; [13]
  Alfa-Lipoproteins Average ± SD: 44,8 ± 8,5 mg/100 ml serum
  Beta-Lipoproteins Average ± SD: 102,3 ± 36,9 mg/100 ml serum
  Beta/alfa ratio Average ± SD: 2,46 ± 1,2 mg/100 ml serum
  Total cholesterol Average ± SD: 147,2 ± 31,3 mg/100 ml serum
  Total lipids Average ± SD: 1949,7 ± 273,9 mg/100 ml serum
  Triglycerids Average ± SD: 583,4 ± 121,1 mg/100 ml serum
[7]; 100 mg/kg os
  Alfa-Lipoproteins: Increase towards Group 2: +100%
  Beta-Lipoproteins: Inhibition towards Group 2: -72,6%
  Beta/alfa ratio: Inhibition towards Group 2: -80,3%
  Total cholesterol: Inhibition in comparison with Group 2: -50,3%
  Total lipids: Inhibition in comparison with Group 2: -48,9%
  Triglycerids: Inhibition in comparison with Group 2: -55,5%
[7]; 25, 50 and 100 mg/kg oral, Triton WR-1339 rat
  Dose dependence of activity inhibiting the hyperdislipidemia: depends on the dosage
[7]; Triton WR-1339 rat
  Activity compared with UA: more active than UA in all the considered tests
[7]; Triton WR-1339 rat, listed as sodium ursosulphate (US)
  Activity compared with UA: an activity in some cases higher than that of ursodeoxycholic acid
[8]; 1000 mg/kg
  Symptomatology: N
  Died animals: 0 animals
[8]; 2000 mg/kg
  Symptomatology: N
  Died animals: 0 animals
[8]; 3000 mg/kg
  Symptomatology: D
  Died animals: 0 animals
[8]; 4000 mg/kg
  Symptomatology: D
  Died animals: 0 animals
[8]; 5000 mg/kg
  Symptomatology: D
  Died animals: 2 animals
[8]; 6000 mg/kg
  Symptomatology: D
  Died animals: 4 animals
[8]; [10]
  LD50: the LD50 was not reached up to the administered doses
[9]; 1000 mg/kg
  mortality at 192 h: 0%
[9]; 2000 mg/kg
  mortality at 192 h: 0%
[9]; 3000 mg/kg
  mortality at 192 h: 0%
[9]; 4000 mg/kg
  mortality at 192 h: 0%
[9]; 5000 mg/kg
  mortality at 192 h: 20%
[9]; 6000 mg/kg
  mortality at 192 h: 40%
